Assay results reported in patent US20240115654A1, “INTRAVENOUS ADMINISTRATION OF ENGINEERED ANTIMICROBIAL AMPHIPHILIC PEPTIDES” (priority 2021, published 2024).
Like-named read-outs stand apart in the source and are kept apart here. Peptide text beside a SMILES is read from it.

Description: All subjects who met eligibility criteria were confined to the clinical research unit from […] through Day 3. At admission, physical examination, vital signs, 12 lead ECG and weight were obtained, medical and medication history were updated if necessary, safety blood tests (hematology and chemistry), urinalysis, urine drug screen and an alcohol breath test were repeated and a urine pregnancy test was done for women of childbearing potential.
At each dose level, there were 2 sentinel subjects, (1 active, 1 placebo), who were dosed at least 48 hours in advance of the other subjects in their respective group. Following review of safety data, including physical examination, vital signs, and review of adverse events from the first 2 subjects, enrolment in the cohort continued.
A 12-lead ECG was performed on Day 1, within 60 minutes of infusion start (in triplicate), mid-way through the infusion, at the completion of the infusion, 30 minutes after completion of the infusion and at various timepoints following the end of the infusion.
Vital signs were recorded within 60 minutes pre-dose, at the mid-point of the infusion and post dose vitals were assessed at completion of the infusion, 0.5, 1, 2, 3, 4, 6, 9, 12, 24 and 48 hours post dose, after at least 3 minutes of rest in supine position.
Subjects returned to the study center 7 days after dosing, for the termination visit. A full physical examination, vital signs and weight were obtained, concomitant medications were updated if necessary, safety blood specimens (haematology and chemistry, PT and aPTT) and urine were collected for urinalysis and urine drug screening. A serum pregnancy test was done for women of childbearing potential and a 12-lead ECG was performed.
In this study dose limiting toxicity (DLT) was defined as any drug related ≥Grade 3 AEs occurring despite optimal therapeutic interventions (which included but were not limited to allergic/hypersensitivity reactions, dermatological reactions/infusion site reactions, haematological toxicities such as neutropenia, thrombocytopenia and anaemia and clinical chemistry abnormalities) experienced up to Day 7 (Termination Visit).
(§1) All subjects who received any amount of study drug were included in the safety analysis (Safety population).
The study was a double blinded, randomized, placebo-controlled study. The placebo administered was 0.9% sodium chloride.
On Day 1 (day of dosing), subjects were randomly assigned either peptide IV or Placebo IV. At each dose level, there were 2 sentinel subjects, (1 active, 1 placebo), who were dosed at least 48 hours in advance of the other subjects in their respective group. Following review of safety data, including physical examination, vital signs, and review of adverse events from the first 2 subjects, enrolment in the cohort continued. All subjects who met eligibility criteria were confined to the clinical research unit from Day −2 through Day 3. At admission, physical examination, vital signs, 12 lead ECG and weight were obtained, medical and medication history were updated if necessary, safety blood tests (hematology and chemistry), urinalysis, urine drug screen and an alcohol breath test were repeated and a urine pregnancy test was done for women of childbearing potential.
as §1

[1] = 0.05 mg/kg IV 1 hr infusion (N = 6)
[2] = 0.5 mg/kg IV 2 hr infusion (N = 6)
[3] = Cohort 1: 0.05 mg/kg IV 1-hr infusion (N = 6)

SMILES: CC(C)[C@H](NC(=O)[C@H](Cc1c[nH]c2ccccc12)NC(=O)[C@H](CCCNC(=N)N)NC(=O)[C@H](CCCNC(=N)N)NC(=O)[C@@H](NC(=O)[C@@H](NC(=O)[C@H](CCCNC(=N)N)NC(=O)[C@@H](NC(=O)[C@@H](NC(=O)[C@H](CCCNC(=N)N)NC(=O)[C@H](CCCNC(=N)N)NC(=O)[C@H](Cc1c[nH]c2ccccc12)NC(=O)[C@@H](NC(=O)[C@H](CCCNC(=N)N)NC(=O)[C@H](CCCNC(=N)N)NC(=O)[C@@H](NC(=O)[C@H](CCCNC(=N)N)NC(=O)[C@H](CCCNC(=N)N)NC(=O)[C@@H](NC(=O)[C@H](Cc1c[nH]c2ccccc12)NC(=O)[C@H](CCCNC(=N)N)NC(=O)[C@@H](N)CCCNC(=N)N)C(C)C)C(C)C)C(C)C)C(C)C)C(C)C)C(C)C)C(C)C)C(=O)N[C@@H](CCCNC(=N)N)C(=O)N[C@@H](CCCNC(=N)N)C(N)=O [SEQ ID NO: 1] (H-RRWVRRVRRVWRRVVRVVRRWVRR-NH2)
- Related TEAE Abdominal [?], n participants [1]: 0
- Related TEAE Blood and lymphatic system disorders, n participants [1]: 0
- Related TEAE Co[?], n participants [1]: 0
- Related TEAE D[?] (r32, GI SOC), n participants [1]: 0
- Related TEAE F[?], n participants [1]: 0
- Related TEAE Gastrointestinal disorders, n participants [1]: 0
- Related TEAE In[?] related reaction, n participants [1]: 0
- Related TEAE Infusion [?] reaction, n participants [1]: 0
- Related TEAE Injury, poi[?] procedural complications, n participants [1]: 0
- Related TEAE M[?] and connective tissure disorders, n participants [1]: 0
- Related TEAE Myalgia, n participants [1]: 0
- Related TEAE Nervous system disorders, n participants [1]: 0
- Related TEAE O[?] (r25, vascular SOC), n participants [1]: 0
- Related TEAE O[?] (r38, respiratory SOC), n participants [1]: 0
- Related TEAE P[?] (r26, vascular SOC), n participants [1]: 0
- Related TEAE Pain in extremity, n participants [1]: 0
- Related TEAE Respiratory, thoracic and m[?] disorders, n participants [1]: 0
- Related TEAE T[?], n participants [1]: 0
- Related TEAE Vascular disorders, n participants [1]: 0
- Related TEAE Ve[?], n participants [1]: 0
- Related TEAE [?] headache, n participants [1]: 0
- TEAE A[?] (r19, skin SOC), n participants [1]: 0
- TEAE A[?] (r46, GI SOC), n participants [1]: 0
- TEAE Back pain, n participants [1]: 0
- TEAE Blood and lymphatic system disorders, n participants [1]: 0
- TEAE Constipation, n participants [1]: 0
- TEAE D[?] (r54), n participants [1]: 0
- TEAE D[?] contact, n participants [1]: 0
- TEAE Dia[?], n participants [1]: 0
- TEAE Headache, n participants [1]: 0
- TEAE In[?] (r53), n participants [1]: 0
- TEAE Injury, [?] and procedural complications, % participants [1]: 50.0%
- TEAE Injury, [?] and procedural complications, M occurrences [1]: 3
- TEAE Injury, [?] and procedural complications, n participants [1]: 3
- TEAE Mu[?], n participants [1]: 0
- TEAE Musculoskeletal and connective tissue disorders, n participants [1]: 0
- TEAE My[?], n participants [1]: 0
- TEAE O[?] (r37, vascular SOC), n participants [1]: 0
- TEAE O[?] pain, n participants [1]: 0
- TEAE Pain [?], n participants [1]: 0
- TEAE Participants with at least one [?], M occurrences [1]: 7
- TEAE Participants with at least one [?], n participants [1]: 5
- TEAE R[?] (r20, skin SOC), n participants [1]: 0
- TEAE Respiratory, thoracic and [?] disorders, n participants [1]: 0
- TEAE Severity Grade 1, occurrences (M) [1]: 7
- TEAE Severity Grade 1, participants % [1]: 83.3%
- TEAE Severity Grade 1, participants n [1]: 5
- TEAE Severity Grade 2, participants n [1]: 0
- TEAE Skin and [?] tissue [?], n participants [1]: 0
- TEAE Skin reaction, n participants [1]: 0
- TEAE Thermal [?], n participants [1]: 0
- TEAE V[?] (r24, general SOC), n participants [1]: 0
- TEAE V[?] access [?] (r10), % participants [1]: 50.0%
- TEAE V[?] access [?] (r10), M occurrences [1]: 3
- TEAE V[?] access [?] (r10), n participants [1]: 3
- TEAE V[?] puncture site [?] (r28), n participants [1]: 0
- TEAE Vascular access site [?] (r11), n participants [1]: 0
- TEAE Vascular access site [?] (r12), n participants [1]: 0
- TEAE Vascular access site [?] (r15), n participants [1]: 0
- TEAE Vascular disorders, n participants [1]: 0
- TEAE [?] (r13, under Injury SOC), n participants [1]: 0
- TEAE [?] (r25, general SOC), n participants [1]: 0
- TEAE [?] (r26, general SOC), n participants [1]: 0
- TEAE [?] (r38, vascular SOC), n participants [1]: 0
- TEAE [?] (r39, vascular SOC), n participants [1]: 0
- TEAE [?] (r44, nervous SOC), n participants [1]: 0
- TEAE [?] (r52, blood SOC), n participants [1]: 0
- TEAE, occurrences (M) [1]: 7
- Participants Reporting at least One TEAE, % [2]: 100%
- Related TEAE Blood and lymphatic system disorders, n participants [2]: 0
- Related TEAE Co[?], n participants [2]: 0
- Related TEAE F[?], n participants [2]: 0
- Related TEAE In[?] related reaction, n participants [2]: 0
- Related TEAE Injury, poi[?] procedural complications, n participants [2]: 0
- Related TEAE M[?] and connective tissure disorders, n participants [2]: 0
- Related TEAE Myalgia, n participants [2]: 0
- Related TEAE Nervous system disorders, n participants [2]: 0
- Related TEAE O[?] (r25, vascular SOC), n participants [2]: 0
- Related TEAE O[?] (r38, respiratory SOC), n participants [2]: 0
- Related TEAE P[?] (r26, vascular SOC), n participants [2]: 0
- Related TEAE Pain in extremity, n participants [2]: 0
- Related TEAE Respiratory, thoracic and m[?] disorders, n participants [2]: 0
- Related TEAE T[?], n participants [2]: 0
- Related TEAE V[?] (r18), n participants [2]: 0
- Related TEAE Vascular disorders, n participants [2]: 0
- Related TEAE [?] headache, n participants [2]: 0
- TEAE A[?] (r19, skin SOC), n participants [2]: 0
- TEAE Abdominal pain, n participants [2]: 0
- TEAE Blood and lymphatic system disorders, n participants [2]: 0
- TEAE Constipation, n participants [2]: 0
- TEAE D[?] contact, n participants [2]: 0
- TEAE Dizziness, n participants [2]: 0
- TEAE Gastrointestinal disorders, M occurrences [2]: 2
- TEAE Gastrointestinal disorders, n participants [2]: 1
- TEAE Injury, [?] and procedural complications, M occurrences [2]: 4
- TEAE Injury, [?] and procedural complications, n participants [2]: 3
- TEAE Mu[?], n participants [2]: 0
- TEAE My[?], n participants [2]: 0
- TEAE O[?] (r37, vascular SOC), n participants [2]: 0
- TEAE O[?] pain, n participants [2]: 0
- TEAE P[?] (r43, nervous SOC), n participants [2]: 0
- TEAE Respiratory, thoracic and [?] disorders, n participants [2]: 0
- TEAE Severity Grade 1, occurrences (M) [2]: 12
- TEAE Severity Grade 1, participants % [2]: 100%
- TEAE Severity Grade 1, participants n [2]: 6
- TEAE Severity Grade 2, occurrences (M) [2]: 3
- TEAE Severity Grade 2, participants n [2]: 2
- TEAE Skin and [?] tissue [?], M occurrences [2]: 3
- TEAE Skin and [?] tissue [?], n participants [2]: 2
- TEAE Skin reaction, M occurrences [2]: 2
- TEAE Skin reaction, n participants [2]: 1
- TEAE Thermal [?], n participants [2]: 0
- TEAE V[?] puncture site [?] (r27), n participants [2]: 0
- TEAE V[?] puncture site [?] (r28), n participants [2]: 0
- TEAE Vascular access site [?] (r15), n participants [2]: 0
- TEAE Vascular disorders, n participants [2]: 0
- TEAE [?] (r13, under Injury SOC), n participants [2]: 0
- TEAE [?] (r26, general SOC), n participants [2]: 0
- TEAE [?] (r38, vascular SOC), n participants [2]: 0
- TEAE [?] (r39, vascular SOC), n participants [2]: 0
- TEAE [?] (r44, nervous SOC), n participants [2]: 0
- TEAE [?] (r52, blood SOC), n participants [2]: 0
- TEAE, occurrences (M) [2]: 15
- overall safety and tolerability (0.05 to 0.5 mg/kg, drug concentration below […] and rate of infusion below 25 mg/hr): safe and well tolerated
- Number of Participants Reporting at least: Onc TEAE Leading to Study Withdrawal, n (%) [3]: 0
- Number of Participants Reporting at least: One Dose-Limiting Toxicity, n (%) [3]: 0
- Number of Participants Reporting at least: One Related TEAE, n (%) [3]: 1 (16.7%)
- Number of Participants Reporting at least: One Serious TEAE, n (%) [3]: 0
- Number of Participants Reporting at least: One TEAE Leading to Study Drug Discontinuation, n (%) [3]: 0
- Number of Participants Reporting at least: One TEAE with Common Terminology Criteria for Adverse Events (CTCAE) Toxicity ≥ Grade 3, n (%) [3]: 0
- Number of Participants Reporting at least: One TEAE, n (%) [3]: 5 (83.3%)
- One Related TEAE, m [3]: 1
- One TEAE, m [3]: 7
- Participants With At Least 1 TEAE, n (%) [3]: 5 (83.3%)
